Assay results: BindingDB's records for doi:10.1074/jbc.M707463200 (National Cancer Institute-Bethesda, 2008)

Tests used:
Test in all cases: Binding Assay
Settings in all cases: pH 7.4; 18 °C
[1] = molecular target: Serine/threonine-protein kinase MRCK beta (Homo sapiens, UniProt Q9Y5S2)
Experimental: (§1) [3H]PDBu binding to the C1 domains of MRCK alpha/beta and PKC alpha/delta was measured using the polyethylene glycol precipitation assay.

[2] = molecular target: Serine/threonine-protein kinase MRCK alpha (Homo sapiens, UniProt Q5VT25)
Experimental: as §1

[3] = molecular target: Protein kinase C delta type (Homo sapiens, UniProt Q05655)
Experimental: as §1

[4] = molecular target: Protein kinase C alpha type (Homo sapiens, UniProt P17252)
Experimental: as §1

Serine/threonine-protein kinase MRCK beta, sequence (Q9Y5S2 whole entry, the tested form may be a part): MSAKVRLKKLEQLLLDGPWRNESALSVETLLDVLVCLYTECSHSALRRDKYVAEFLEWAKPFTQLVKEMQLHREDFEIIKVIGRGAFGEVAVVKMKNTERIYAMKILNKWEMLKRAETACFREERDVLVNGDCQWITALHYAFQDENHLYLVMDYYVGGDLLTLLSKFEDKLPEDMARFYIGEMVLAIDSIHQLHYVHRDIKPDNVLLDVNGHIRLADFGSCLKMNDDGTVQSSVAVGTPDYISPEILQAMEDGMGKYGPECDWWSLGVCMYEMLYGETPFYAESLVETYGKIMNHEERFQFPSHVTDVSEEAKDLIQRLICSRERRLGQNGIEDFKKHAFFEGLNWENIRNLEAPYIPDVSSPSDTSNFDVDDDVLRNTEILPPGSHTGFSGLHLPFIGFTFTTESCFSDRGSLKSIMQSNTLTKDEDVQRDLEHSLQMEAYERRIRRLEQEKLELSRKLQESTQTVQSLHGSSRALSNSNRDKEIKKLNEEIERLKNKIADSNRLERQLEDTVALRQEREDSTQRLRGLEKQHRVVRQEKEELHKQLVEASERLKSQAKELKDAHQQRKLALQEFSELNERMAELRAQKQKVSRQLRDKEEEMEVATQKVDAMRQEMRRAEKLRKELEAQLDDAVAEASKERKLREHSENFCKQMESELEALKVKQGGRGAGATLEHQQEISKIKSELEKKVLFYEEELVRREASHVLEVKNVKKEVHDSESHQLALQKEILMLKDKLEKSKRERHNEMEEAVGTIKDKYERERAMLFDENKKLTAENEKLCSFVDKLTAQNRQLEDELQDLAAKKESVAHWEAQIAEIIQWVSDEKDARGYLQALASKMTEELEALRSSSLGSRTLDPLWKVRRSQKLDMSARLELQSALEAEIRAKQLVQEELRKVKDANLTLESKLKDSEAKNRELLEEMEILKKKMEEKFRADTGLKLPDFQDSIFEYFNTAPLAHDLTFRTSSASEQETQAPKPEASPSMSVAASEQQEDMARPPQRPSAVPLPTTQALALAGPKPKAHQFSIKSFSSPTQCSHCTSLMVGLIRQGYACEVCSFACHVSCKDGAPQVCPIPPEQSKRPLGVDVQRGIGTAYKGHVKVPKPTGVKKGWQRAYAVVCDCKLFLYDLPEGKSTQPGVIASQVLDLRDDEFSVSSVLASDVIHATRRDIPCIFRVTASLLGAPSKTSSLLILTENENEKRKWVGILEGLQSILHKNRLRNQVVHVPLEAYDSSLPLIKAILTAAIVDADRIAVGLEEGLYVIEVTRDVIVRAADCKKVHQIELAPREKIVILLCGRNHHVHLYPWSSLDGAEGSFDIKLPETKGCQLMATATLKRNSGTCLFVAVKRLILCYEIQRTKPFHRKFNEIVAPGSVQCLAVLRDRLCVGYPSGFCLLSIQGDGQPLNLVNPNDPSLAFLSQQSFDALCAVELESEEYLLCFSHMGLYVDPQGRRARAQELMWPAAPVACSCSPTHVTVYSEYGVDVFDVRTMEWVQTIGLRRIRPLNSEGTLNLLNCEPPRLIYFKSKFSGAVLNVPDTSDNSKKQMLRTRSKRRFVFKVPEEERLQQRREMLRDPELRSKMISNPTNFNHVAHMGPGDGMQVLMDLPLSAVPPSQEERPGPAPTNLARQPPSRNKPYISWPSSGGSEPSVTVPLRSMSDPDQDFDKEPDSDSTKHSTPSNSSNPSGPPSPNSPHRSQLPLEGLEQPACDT
Serine/threonine-protein kinase MRCK alpha, sequence (Q5VT25 whole entry): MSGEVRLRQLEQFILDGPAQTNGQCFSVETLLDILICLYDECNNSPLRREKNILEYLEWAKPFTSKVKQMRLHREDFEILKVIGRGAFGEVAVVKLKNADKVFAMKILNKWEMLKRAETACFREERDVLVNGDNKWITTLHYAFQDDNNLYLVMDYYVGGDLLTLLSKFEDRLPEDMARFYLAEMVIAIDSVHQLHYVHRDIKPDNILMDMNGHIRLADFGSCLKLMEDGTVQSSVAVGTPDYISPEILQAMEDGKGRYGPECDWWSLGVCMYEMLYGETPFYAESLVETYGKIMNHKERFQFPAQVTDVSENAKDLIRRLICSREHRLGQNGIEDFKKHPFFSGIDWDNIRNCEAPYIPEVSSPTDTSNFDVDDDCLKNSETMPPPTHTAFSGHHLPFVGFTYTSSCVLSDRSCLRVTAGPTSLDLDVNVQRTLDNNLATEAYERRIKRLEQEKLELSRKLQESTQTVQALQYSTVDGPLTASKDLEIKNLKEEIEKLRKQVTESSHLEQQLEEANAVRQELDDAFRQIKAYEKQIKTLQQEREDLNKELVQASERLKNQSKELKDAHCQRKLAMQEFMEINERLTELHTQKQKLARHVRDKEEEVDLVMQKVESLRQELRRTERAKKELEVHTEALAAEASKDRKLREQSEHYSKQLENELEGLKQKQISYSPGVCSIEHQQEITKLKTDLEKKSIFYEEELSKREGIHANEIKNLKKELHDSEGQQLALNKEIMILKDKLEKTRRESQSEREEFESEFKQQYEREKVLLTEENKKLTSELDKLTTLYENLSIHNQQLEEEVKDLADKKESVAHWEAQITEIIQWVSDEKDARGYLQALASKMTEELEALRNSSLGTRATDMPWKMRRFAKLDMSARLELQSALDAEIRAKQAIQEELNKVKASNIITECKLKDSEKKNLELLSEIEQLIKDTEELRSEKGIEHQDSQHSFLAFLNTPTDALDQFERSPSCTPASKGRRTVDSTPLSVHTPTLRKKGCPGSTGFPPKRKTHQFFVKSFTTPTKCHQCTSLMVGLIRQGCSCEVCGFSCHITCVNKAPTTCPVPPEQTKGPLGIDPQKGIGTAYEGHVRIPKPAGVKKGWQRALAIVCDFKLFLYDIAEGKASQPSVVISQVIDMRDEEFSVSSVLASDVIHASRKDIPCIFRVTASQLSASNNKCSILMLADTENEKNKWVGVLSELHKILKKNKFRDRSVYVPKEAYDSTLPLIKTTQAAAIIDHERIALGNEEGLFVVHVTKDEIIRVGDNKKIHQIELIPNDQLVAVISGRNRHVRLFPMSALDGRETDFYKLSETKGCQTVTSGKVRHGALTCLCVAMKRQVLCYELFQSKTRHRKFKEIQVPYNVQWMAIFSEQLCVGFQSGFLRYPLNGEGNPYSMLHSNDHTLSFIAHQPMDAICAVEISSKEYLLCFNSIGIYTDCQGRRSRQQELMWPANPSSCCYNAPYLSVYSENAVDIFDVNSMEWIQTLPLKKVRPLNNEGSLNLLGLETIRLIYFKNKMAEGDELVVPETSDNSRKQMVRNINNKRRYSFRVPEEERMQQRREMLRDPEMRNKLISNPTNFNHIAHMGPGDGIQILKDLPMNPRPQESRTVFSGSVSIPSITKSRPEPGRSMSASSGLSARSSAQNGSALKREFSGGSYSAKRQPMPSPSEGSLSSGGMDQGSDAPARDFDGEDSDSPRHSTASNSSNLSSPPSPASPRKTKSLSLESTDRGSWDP
Protein kinase C delta type, sequence (Q05655 whole entry): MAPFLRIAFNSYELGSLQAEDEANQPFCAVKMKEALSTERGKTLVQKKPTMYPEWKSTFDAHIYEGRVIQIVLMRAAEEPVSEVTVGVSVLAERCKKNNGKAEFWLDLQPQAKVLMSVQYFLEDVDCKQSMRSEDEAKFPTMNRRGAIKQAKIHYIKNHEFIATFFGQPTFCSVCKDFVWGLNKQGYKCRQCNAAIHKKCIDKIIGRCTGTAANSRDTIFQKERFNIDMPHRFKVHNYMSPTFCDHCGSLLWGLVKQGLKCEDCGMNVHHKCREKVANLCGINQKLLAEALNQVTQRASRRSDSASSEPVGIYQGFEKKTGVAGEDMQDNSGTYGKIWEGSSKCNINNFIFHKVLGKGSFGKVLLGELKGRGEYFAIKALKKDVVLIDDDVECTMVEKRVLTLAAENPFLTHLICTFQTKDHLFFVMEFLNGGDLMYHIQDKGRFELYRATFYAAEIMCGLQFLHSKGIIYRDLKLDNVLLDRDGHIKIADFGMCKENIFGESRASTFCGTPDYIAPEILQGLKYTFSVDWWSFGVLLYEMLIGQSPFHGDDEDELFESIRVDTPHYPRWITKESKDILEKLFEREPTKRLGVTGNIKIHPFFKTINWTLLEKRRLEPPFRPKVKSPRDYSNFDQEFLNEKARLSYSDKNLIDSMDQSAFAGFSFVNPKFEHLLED

SMILES | Ki [1] | Ki [2] | Ki [3] | Ki [4]
CCCCCCCC(=O)OC[C@H](CO)OC(=O)CCCCCCC | 6960 nM | 2820 nM | – | –
CN(C)c1ccc(/C=C2/CC(CO)(COC(=O)c3ccc([N+](=O)[O-])cc3)OC2=O)cc1 (centres undefined) [DAG-lactone (130C045)] | 26000 nM | 22600 nM | 1.54 nM | 4200 nM
CC(C)CC(C/C=C1/CC(CO)(COC(=O)C(C)(C)C)OC1=O)CC(C)C (centres undefined) [DAG-lactone (HK-434)] | 1070 nM | 1030 nM | – | 402 nM
